Laboratory results as given in publication PMC2730762 (Biochemistry, 2009).
Where a SMILES comes first, the peptide text is derived from it. [ ]: non-standard residue; d: D form. The star is where a group is joined. Sta = CC(C)C[C@H](N)[C@@H](O)CC(=O)O; Isovaleryl = CC(C)CC(=O)*

Legend:
PfPM1 = PfPM1 (Plasmodium falciparum, UniProt Q7KQM4); assay: biochemical
[1] = tested on: cultured P. falciparum parasites; conditions: cited from earlier work
[2] = target: naturally-occurring PfPM1; conditions: cited from earlier work

PfPM1, sequence (Q7KQM4 124-452): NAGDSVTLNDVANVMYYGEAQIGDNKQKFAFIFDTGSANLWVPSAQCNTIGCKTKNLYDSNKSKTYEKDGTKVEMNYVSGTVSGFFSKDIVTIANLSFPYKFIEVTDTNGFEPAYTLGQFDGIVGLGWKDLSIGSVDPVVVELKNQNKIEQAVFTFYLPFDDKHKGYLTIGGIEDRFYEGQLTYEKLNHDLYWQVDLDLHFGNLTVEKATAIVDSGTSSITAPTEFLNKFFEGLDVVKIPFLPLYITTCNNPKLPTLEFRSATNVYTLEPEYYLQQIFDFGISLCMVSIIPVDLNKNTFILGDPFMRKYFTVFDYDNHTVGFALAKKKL

## CC(C)CC(=O)N[C@H](C(=O)N[C@H](C(=O)N[C@@H](CC(C)C)[C@@H](O)CC(=O)N[C@@H](C)C(=O)N[C@@H](CC(C)C)[C@@H](O)CC(=O)O)C(C)C)C(C)C [pepstatin A] (Isovaleryl-VV[Sta]A[Sta]-OH)
PfPM1
  Ki: 1.4 ± 0.2 nM
[1]
  killing of cultured P. falciparum parasites: kill cultured P. falciparum parasites
[2]
  Ki: 0.7 nM
